Test results from patent US4698350A, “1-ethyl-6-fluoro-1,4-dihydro- 7-(2,6-dimethyl-4-pyridinyl)-4-oxo-3-quinolinecarboxylic acid and antibacterial use thereof” (Sterling Drug Inc., priority 1984, dated 1987).
Converted amounts (≈) assume the structure as drawn. Counter-ions that a name gives are not always drawn. Like-named read-outs stand apart in the source and are kept apart here.

What was measured:
[1] = test system: S. edidermidis; assay: In vitro MIC/MBC summary (Table II); assay type: cell-based, S. epidermidis; settings: Staphylococcus epidermidis, 5 S. edidermidis strains; for MIC50: read-out: MIC 50%; for MIC90: read-out: MIC 90%; for MIC: read-out: MIC Range
Experimental: (§1) Win 52,522 and Win 35,439 were solubilized in 0.1 ml of 0.5 N NaOH/mg of compound and diluted in sterile distilled water to 160 mcg/ml. Vancomycin and methicillin were solubilized in sterile distilled water to 1250 mcg/ml of base compound. The stock solutions were sterilized by filtration through membrane filters with a 0.45 μm pore size.
(§2) The bacterial cultures listed in Table I (hereinbelow) were grown overnight at 37° C. in MHB for all cultures except the Streptococcus strains. These were grown in BHI+10% NHS. The overnight broth cultures were adjusted to an optical density of 0.10 (650 nm, B L Spectronic 20) in sterile distilled water and subsequently diluted to 6.7×10^6 cells/ml in MHB or BHI+1% NHS.
(§3) Serial two-fold dilutions of the compound solutions were prepared in MHB (or in BHI+1% NHS for tests with Streptococci) and dispensed into 96-well microtiter trays in a volume of 0.1 ml/well using a Sandy Springs (Bellco Glass Co.) dispenser. The trays were then inoculated with 0.0015 ml of a suspension containing 6.7×10^6 cells/ml of the appropriate inoculum using a MIC-2000 inoculator (Dynatech Corp.) resulting in a final inoculum of approximately 1×10^4 cells/well or 1×10^5 cells/ml. The trays were incubated at 37° C. for 18-20 hours and the minimal inhibitory concentration (MIC), defined as the lowest concentration of compound to inhibit visible bacterial growth, was recorded.
(§4) After the MIC values were recorded, the contents in the microtiter trays were thoroughly mixed on a Bellco Mini-orbital Shaker (Bellco Glass Co.) for 3 min. at a setting of 8. A portion (0.0015 ml) from each well was then transferred via an MIC-2000 inoculator to plates containing MHA or BHI agar+10% NHS. The plates were incubated at 37° C. for 18-20 hrs. The minimal bactericidal concentration (MBC), defined as the lowest concentration of compound that prevented the formation of a recognizable colony on the agar surface, was recorded.

[2] = test system: S. aureus 10-81; assay: In vitro antibacterial MIC/MBC test; assay type: cell-based; settings: Staphylococcus aureus, 1081, S. aureus 10-81; for MBC: read-out: MBC; for MIC: read-out: MIC
Experimental: as §1, §2, §3, §4

[3] = test system: S. aureus Smith; assay: In vitro antibacterial MIC/MBC test; assay type: cell-based; settings: Staphylococcus aureus, S. aureus Smith; for MBC: read-out: MBC; for MIC: read-out: MIC
Experimental: as §1, §2, §3, §4

[4] = test system: S. epidermidis 2-1-B; assay: In vitro antibacterial MIC/MBC test; assay type: cell-based; settings: Staphylococcus epidermidis, 21B, S. epidermidis 2-1-B; for MBC: read-out: MBC; for MIC: read-out: MIC
Experimental: as §1, §2, §3, §4

[5] = test system: S. pneumoniae Type I; assay: In vitro antibacterial MIC/MBC test; assay type: cell-based; settings: Streptococcus pneumoniae, S. pneumoniae Type I; for MBC: read-out: MBC; for MIC: read-out: MIC
Experimental: as §1, §2, §3, §4

[6] = test system: S. aureus 21-81A; assay: In vitro antibacterial MIC/MBC test; assay type: cell-based; settings: Staphylococcus aureus, 2181A, S. aureus 21-81A; for MBC: read-out: MBC; for MIC: read-out: MIC
Experimental: as §1, §2, §3, §4

[7] = test system: S. aureus 59-81; assay: In vitro antibacterial MIC/MBC test; assay type: cell-based; settings: Staphylococcus aureus, 5981, S. aureus 59-81; for MBC: read-out: MBC; for MIC: read-out: MIC
Experimental: as §1, §2, §3, §4

[8] = test system: S. enterococcus 0-2-13; assay: In vitro antibacterial MIC/MBC test; assay type: cell-based; settings: for MBC / MIC: 0213, S. enterococcus 0-2-13; for MBC: read-out: MBC; for MIC: read-out: MIC
Experimental: as §1, §2, §3, §4

[9] = test system: Staphylococcus aureus 39881 (Methicillin-resistant); assay: Mouse protection test, S. aureus 39881 (methicillin-resistant) infection; assay type: in vivo, ICR mice; Staphylococcus aureus; settings: for Survivors/Total: two doses; for ED50: Staphylococcus aureus, 168 h, read-out: Protective Dose 50% (95% Confidence Limits); for ED50 / Protective Dose 50% (95% Confidence Limits): two doses one-half and four hours postinfection; for Protective Dose 50% (95% Confidence Limits): 10080 min
Experimental: (§5) ICR mice, female, 18-20 grams each.
(§6) Solutions of Win 52,522 and Win 35,439 were prepared by dissolving the appropriate weight of drug in 0.3 to 0.4 ml of 1 N NaOH and then bringing the solutions to the desired volume with distilled water. Methicillin and vancomycin were dissolved directly in distilled water.
The culture was streaked onto three Brain Heart Infusion Agar plates and incubated 16 hours at 37° C. The cells were washed off each plate with five ml of saline and the cell suspension was shaken with glass beads for two minutes on a paint shaker. The suspension was diluted with saline so that a […] gave a 44% T reading on a B+L Spectronic 20 (650 nm) calibrated with saline. The stock suspension was diluted 1:24 (10 ml stock suspension+230 ml 5% mucin) to obtain the test inoculum containing 1.55×10^9 cells/ml.
(§7) Mice were inoculated intraperitoneally with 0.5 ml of the bacterial test inoculum.
Mice were medicated twice: at one-half and four hours postinfection. The drugs were administered by both subcutaneous (0.2 ml) and oral (0.5 ml) routes.
(§8) Deaths were recorded daily for seven days for all tests. Fifty percent protective dose values (PD50's) were calculated using probit analysis [SAS Users Guide: Statistics, 1982 Edition, SAS Institute, Inc., Cary, N.C.].

[10] = test system: Staphylococcus aureus Smith; assay: Mouse protection test, S. aureus Smith infection, single dose; assay type: in vivo, ICR mice; Staphylococcus aureus; settings: single dose; for ED50: Staphylococcus aureus, 168 h, read-out: Protective Dose 50% (95% Confidence Limits); for times more efficacious than Win 35,439: S. aureus
Experimental: as §5, §6
Two and one-half ml of pool were added to 247.5 ml of 5% gastric mucin to provide the test inoculum containing 2.1×10^4 cells/ml.
as §7
1. Single dose test--Mice were medicated subcutaneously or orally once (0.5 ml) one-half hour postinfection.
as §8

[11] = test system: Streptococcus sp.; assay: In vitro MIC/MBC summary (Table II); assay type: cell-based; settings: for MIC50: read-out: MIC 50%
Experimental: as §1, §2, §3, §4

[12] = test system: S. aureus; assay: In vitro MIC/MBC summary (Table II); assay type: cell-based; settings: Staphylococcus aureus; for MIC: read-out: MIC Range
Experimental: as §1, §2, §3, §4

[13] = 9 Streptococcus sp. strains, read-out: MBC 50%
[14] = 9 Streptococcus sp. strains, read-out: MBC 90%

Structure (SMILES): CCn1cc(C(=O)O)c(=O)c2cc(F)c(-c3cc(C)nc(C)c3)cc21 [Win 52,522, 1-ethyl-6-fluoro-1,4-dihydro-7-(2,6-dimethyl-4-pyridinyl)-4-oxo-3-quinolinecarboxylic acid]
- MBC ([1]; read-out: MBC 50%): 0.06 µg/mL (≈ 0.176 µM)
- MBC ([1]; read-out: MBC 90%): 0.06 µg/mL (≈ 0.176 µM)
- MBC ([1]; read-out: MBC Range): 0.03 to 0.125 µg/mL (≈ 0.0881 to 0.367 µM)
- MIC50 [1]: 0.06 µg/mL (≈ 0.176 µM)
- MIC90 [1]: 0.06 µg/mL (≈ 0.176 µM)
- MIC [1]: 0.03 to 0.06 µg/mL (≈ 0.0881 to 0.176 µM)
- MBC [2]: 0.03 µg/mL (≈ 0.0881 µM)
- MIC [2]: 0.03 µg/mL (≈ 0.0881 µM)
- MBC [3]: 0.03 µg/mL (≈ 0.0881 µM)
- MIC [3]: 0.03 µg/mL (≈ 0.0881 µM)
- MBC [4]: 0.03 µg/mL (≈ 0.0881 µM)
- MIC [4]: 0.03 µg/mL (≈ 0.0881 µM)
- MBC [5]: 0.25 µg/mL (≈ 0.735 µM)
- MIC [5]: 0.25 µg/mL (≈ 0.735 µM)
- MBC [6]: 0.015 µg/mL (≈ 0.0441 µM)
- MIC [6]: 0.015 µg/mL (≈ 0.0441 µM)
- MBC [7]: 0.03 µg/mL (≈ 0.0881 µM)
- MIC [7]: 0.015 µg/mL (≈ 0.0441 µM)
- MBC [8]: 0.25 µg/mL (≈ 0.735 µM)
- MIC [8]: 0.25 µg/mL (≈ 0.735 µM)
- potency relative to vancomycin ([8]; in vitro, enterococcus strain 0-2-B): equal in potency
- Survivors/Total ([9]; 0.19 mg/kg po): 0/10
- Survivors/Total ([9]; 0.19 mg/kg sc): 0/10
- Survivors/Total ([9]; 0.39 mg/kg po): 0/10
- Survivors/Total ([9]; 0.39 mg/kg sc): 0/10
- Survivors/Total ([9]; 0.78 mg/kg po): 1/10
- Survivors/Total ([9]; 0.78 mg/kg sc): 2/10
- Survivors/Total ([9]; 1.56 mg/kg po): 4/10
- Survivors/Total ([9]; 1.56 mg/kg sc): 10/10
- Survivors/Total ([9]; 3.13 mg/kg po): 10/10
- Survivors/Total ([9]; 3.13 mg/kg sc): 9/10
- Survivors/Total ([9]; 6.25 mg/kg po): 10/10
- Survivors/Total ([9]; 6.25 mg/kg sc): 10/10
- ED50 ([9]; po): 1.6 mg/kg
- ED50 ([9]; sc): 1.1 mg/kg
- times more efficacious than methicillin ([9]; methicillin-resistant S. aureus infection in mice): > 91 times
- Protective Dose 50% (95% Confidence Limits) ([9]; po): 1.6(1.3-2.4) mg/kg
- times more active than Win 35,439 ([9]; sc): 4.5 times
- times more efficacious/active than vancomycin ([9]; sc): 16 times
- Protective Dose 50% (95% Confidence Limits) ([9]; sc): 1.1(0.1-4.1) mg/kg
- Survivors/Total ([10]; 0.095 mg/kg sc): 0/10
- Survivors/Total ([10]; 0.19 mg/kg po): 0/10
- Survivors/Total ([10]; 0.19 mg/kg sc): 0/10
- Survivors/Total ([10]; 0.39 mg/kg po): 0/10
- Survivors/Total ([10]; 0.39 mg/kg sc): 2/10
- Survivors/Total ([10]; 0.78 mg/kg po): 0/10
- Survivors/Total ([10]; 0.78 mg/kg sc): 4/10
- Survivors/Total ([10]; 1.56 mg/kg po): 7/10
- Survivors/Total ([10]; 1.56 mg/kg sc): 10/10
- Survivors/Total ([10]; 3.13 mg/kg po): 10/10
- ED50 ([10]; po): ~1.4 mg/kg
- ED50 ([10]; sc): 0.8 mg/kg
- times more efficacious than Win 35,439 ([10]; po): 3.9 times
- times more efficacious than Win 35,439 ([10]; sc): 3.6 times
- MBC [11, 13]: 0.5 µg/mL (≈ 1.47 µM)
- MBC [11, 14]: 0.5 µg/mL (≈ 1.47 µM)
- MBC ([11]; 9 Streptococcus sp. strains, read-out: MBC Range): 0.125 to 0.5 µg/mL (≈ 0.367 to 1.47 µM)
- MIC50 ([11]; 9 Streptococcus sp. strains): 0.25 µg/mL (≈ 0.735 µM)
- MIC ([11]; 9 Streptococcus sp. strains, read-out: MIC Range): 0.125 to 0.5 µg/mL (≈ 0.367 to 1.47 µM)
- MIC90 ([11]; Streptococcus): 0.5 µg/mL (≈ 1.47 µM)
- MBC ([12]; 15 S. aureus strains, read-out: MBC Range): 0.015 to 0.06 µg/mL (≈ 0.0441 to 0.176 µM)
- MIC50 ([12]; 15 S. aureus strains, read-out: MIC 50%): 0.015 µg/mL (≈ 0.0441 µM)
- MIC90 ([12]; 15 S. aureus strains, read-out: MIC 90%): 0.03 µg/mL (≈ 0.0881 µM)
- MIC ([12]; 15 S. aureus strains): 0.008 to 0.03 µg/mL (≈ 0.0235 to 0.0881 µM)

Structure (SMILES): COc1cccc(OC)c1C(=O)N[C@@H]1C(=O)N2[C@@H]1SC(C)(C)[C@@H]2C(=O)O [Methicillin, 6-(2,6-dimethoxybenzamido)penicillanic acid sodium salt]
- MBC ([1]; read-out: MBC 50%): 4 µg/mL
- MBC ([1]; read-out: MBC 90%): 4 µg/mL
- MBC ([1]; read-out: MBC Range): 2 to 4 µg/mL
- MIC50 [1]: 2 µg/mL
- MIC90 [1]: 4 µg/mL
- MIC [1]: 1 to 4 µg/mL
- MBC [2]: 16 µg/mL
- MIC [2]: 8 µg/mL
- MBC [3]: 1 µg/mL
- MIC [3]: 1 µg/mL
- MBC [4]: 2 µg/mL
- MIC [4]: 1 µg/mL
- MBC [5]: ≤ 0.06 µg/mL
- MIC [5]: ≤ 0.06 µg/mL
- MBC [6]: 1 µg/mL
- MIC [6]: 1 µg/mL
- MBC [7]: 64 µg/mL
- MIC [7]: 32 µg/mL
- MBC [8]: 8 µg/mL
- MIC [8]: 8 µg/mL
- Survivors/Total ([9]; 25 mg/kg sc): 0/10
- Survivors/Total ([9]; 50 mg/kg sc): 0/10
- Survivors/Total ([9]; 100 mg/kg sc): 0/10
- ED50 ([9]; sc): > 100 mg/kg
- MBC [11, 13]: 0.125 µg/mL
- MBC [11, 14]: 64 µg/mL
- MIC50 ([11]; 9 Streptococcus sp. strains): 0.25 µg/mL
- MIC90 ([11]; 9 Streptococcus sp. strains, read-out: MIC 90%): 64 µg/mL
- MIC50 [12]: 2 µg/mL
- MIC90 [12]: 8 µg/mL
- MBC ([12]; read-out: MBC 90%): > 64 µg/mL
- MIC [12]: 1 to 125 µg/mL
